{"source": "patent US8519124B2", "about": "“Chemokine receptor antagonists and use thereof” (Ono Pharmaceutical Co., Ltd., priority 2005, dated 2013)", "key": {"[1]": {"experiment": "Measurement of maximum plasma level (Cmax) and bioavailability (BA)", "format": "in vivo", "conditions": "male, Crl:CD(SD), po; rat plasma; orally administered solution 10 mg/kg, fasting", "procedure": "Measurement of Maximum Plasma Level (CMax) and Bioavailability (BA)\nA test compound is weighed, dissolved in Solutol (trade name; manufactured by BASF-TAKEDA Vitamins Ltd.)/propylene glycol=7/3 which is heated to 60° C. and adjusted to 20 mg/mL; thereafter, the test compound is diluted by 10 times with distilled water for injection, and further diluted by 2 times with saline solution, by which intravenously administered solution is eventually made. The test compound is weighed, dissolved in Solutol (trade name; manufactured by BASF-TAKEDA Vitamins Ltd.)/propylene glycol=7/3 which is heated to 60° C., and adjusted to 20 mg/mL; thereafter, the test compound is diluted by 10 times with distilled water for injection, by which orally administered solution is eventually made. Intravenous administration is performed by rapid single administration (n=3) of intravenously administered solution (1 mg/kg) from the tail vein of Crl:CD(SD) Rat (male, manufactured by CHARLES RIVER LABORATORIES JAPAN, INC). Oral administration is performed by forced administration (n=3) of orally administered solution (10 mg/kg) into the stomach of Crl:CD(SD) Rat (male, manufactured by CHARLES RIVER LABORATORIES JAPAN, INC.) using a sonde. The administration is conducted under fasting conditions; water is freely ingested. A 0.35 mL blood sample is taken from cervical vein by using Heparinized Syringe at 15 minutes, 30 minutes, 1 hour, 2 hours, 4 hours, 6 hours, 8 hours, and 24 hours after administration. The obtained blood is stored in ice, and after centrifugation at 12,000 rpm for 5 minutes, blood plasma is fractionated. The blood plasma is preserved at a temperature of −80° C. The sample of blood plasma preserved at a temperature of −80° C. is dissolved; inner standard solution (100 μL) and acetonitrile (2 mL) are added to the blood plasma sample 100 μL and stirred; and the sample is centrifuged at 2,500 rpm for 10 minutes. After the supernatant is evaporated to dryness by means of a centrifugal concentrator, 67% dimethyl sulfoxide solution (150 μL) is added to the residue and dissolves them again; and 20 μL of the solution is analyzed by means of LC/MS/MS.\nThe analysis by means of LC/MS/MS should be performed, for example, under the following conditions:\nMeasurement device: Waters 2795 (manufactured by Waters Corporation)\nAnalytical column: Unison UK-C18, 3.0 μm particle size, 2.0 mm×30 mm (manufactured by Imtakt Corporation)\nAnalytical column temperature: Room temperature\nMoving bed: 5 mM IPC-PFAA-7 solution/acetonitrile (9/1→1/9)\nMeasurement device: Quatro micro API (manufactured by Micromass Communications Inc.)\nMethod for ionization: ES+\nCapillary electric potential: 3.30 kV\nSource temperature: 120° C.\nDesolvation temperature: 350° C.\nThe monitor ion which was suitable for each sample was selected.\nThe concentration transition in the rat blood plasma of the test compound is analyzed by means of non-compartment analysis method by using WinNonlin 4.0.1 (manufactured by Pharsight Corporation) to calculate the maximum blood concentration Cmax and the area under the blood concentration curve AUC.\nBA is calculated by means of the following formula: BA(%)={(AUCp.o./Dosep.o.)/(AUCi.v./Dosei.v.)}×100\nAUCp.o.: AUC in oral administration\nDosep.o.: Amount of the drug orally administered\nAUCi.v.: AUC in intravenous administration\nDosei.v.: Amount of the drug intravenously administered"}, "[2]": {"test_system": "DOPA liposome (artificial lipid membrane)", "experiment": "Artificial lipid membrane binding by using Biacore S51 system", "conditions": "50 μM compound", "procedure": "Artificial Lipid Membrane Binding Account by Using Biacore (Registered Trademark) S51 System\n10 mM of 1,2-Dioleoyl-sn-Glycero-3-Phosphate, Monosodium Salt (hereinafter abbreviated as DOPA) chloroform solution was evaporated to dryness by means of an aspirator, and 0.6 mL of PBS/5% dimethyl sulfoxide (hereinafter abbreviated as DMSO) was added. The chloroform solution was fully suspended by means of a vortex mixer, and the freezing and thawing were repeated for 5 times. Liposome was created by means of a liposome adjustment instrument (manufactured by Avestin Inc.) and 2 syringes, and was diluted to 0.5 mM with PBS/5% DMSO just prior to immobilization.\n(ii) Measurement Compound Adjustment\nThe 38 μL of 1×PBS is added to 2 μL DMSO solution (10 mM), and further the 360 μL 1×PBS/5% DMSO was added; the 50 μM of final concentration in the 1×PBS/5% DMSO was adjusted and measured.\nAll of the following analysis used Biacore® S51 system; the measurement conditions were set by Biacore S51 Control Soft.\nThe measurement temperature was set to be 37° C., and the 1×PBS/5% DMSO (pH 7.4 or PH 6.0) was used as a buffer. Series S Sensor Chip L1 was used for a sensor chip. The DOPA was immobilized in one of the measuring spots on the sensor surface, and the central spot was used as a reference.\nImmobilization of liposome was conducted at a flow rate of 10 μL/min for about 3 minutes; then the compound was added at a flow rate of 30 μL/min and the interaction was measured. The measurement conditions are as follows:\nAssay buffer: PBS/5% DMSO (pH 7.4 or PH 6.0)\nMeasurement temperature: 37° C.\nSensor chip: Series S Sensor Chip L1\nFlow rate: 10 μL/min at the time of the liposome immobilization; 30 μL/min at the time of the measurement of interaction with the compound\nRegeneration: 20 mM CHAPS (3-[(3-Cholamidopropyl)dimethylammonio]-1-propanesulfonate), Isopropanol/50 mM sodium hydroxide solution=40/60 (volume ratio) mixture (60 seconds)\nThe data processing was conducted by means of method of Abdiche et al. (Analytical biochemistry, 328, 233-243 (2004)) by using Biacore S51 Evaluation Soft.\nRegarding the value of binding response (RU) in which the value of reference was subtracted, it was divided by a sample molecular weight after minute error of the DMSO concentration included in the sample solution was corrected. In addition, the value obtained here was divided by an amount of capture at the time of the cycle because the value obtained here was proportional to the amount of capture of the liposome; further, the value was multiplied by a million to be considered as a corrected value (Corrected value=1000000)×RU (test compound)/molecular quantity (test compound) RU (liposome)).\nPropranolol, Amiodarone, Desipramine, Imipramine and Procaine were added as the controls, and it was recognized that the variation of the binding response was within ca. 10 to 15%.\nThe compound, in which a value of the binding response after the correction was equal to or more than 150, was determined as positive."}}}
{"smiles": "CC(C)(C)CN1CCC2(CCN(Cc3ccc(C(=O)N(Cc4ncc[nH]4)Cc4ncc[nH]4)cc3)CC2)C1", "note": "[Example 8 (114), 4-{[2-(2,2-dimethylpropyl)-2,8-diazaspiro[4.5]dec-8-yl]methyl}-N,N-bis(1H-imidazol-2-ylmethyl)benzamide]", "values": [{"measurement": "Cmax", "setting": "[1]", "value": 46, "unit": "ng/mL"}, {"measurement": "Judgement (phospholipidosis inductive effect)", "setting": "[2]; DOPA liposome", "value": "negative"}, {"measurement": "Corrected value of binding response (RU)", "setting": "[2]; DOPA liposome on Sensor Chip L1, 37° C., PBS/5% DMSO (pH 7.4 or PH 6.0)", "value": 80.7, "unit": "RU"}]}
